Blank lines part the entries; values can stand above or below the molecule they belong to.
Legend:
[1] = biological target: Muscarinic acetylcholine receptor M3 (Homo sapiens, UniProt P20309); assay: Inhibition of M3 receptor (unknown origin)
[2] = biological target: T1, Muscarinic acetylcholine receptor M2 (Homo sapiens, UniProt P08172); assay: Inhibition of M2 receptor (unknown origin)
T1 sequence (P08172 whole entry): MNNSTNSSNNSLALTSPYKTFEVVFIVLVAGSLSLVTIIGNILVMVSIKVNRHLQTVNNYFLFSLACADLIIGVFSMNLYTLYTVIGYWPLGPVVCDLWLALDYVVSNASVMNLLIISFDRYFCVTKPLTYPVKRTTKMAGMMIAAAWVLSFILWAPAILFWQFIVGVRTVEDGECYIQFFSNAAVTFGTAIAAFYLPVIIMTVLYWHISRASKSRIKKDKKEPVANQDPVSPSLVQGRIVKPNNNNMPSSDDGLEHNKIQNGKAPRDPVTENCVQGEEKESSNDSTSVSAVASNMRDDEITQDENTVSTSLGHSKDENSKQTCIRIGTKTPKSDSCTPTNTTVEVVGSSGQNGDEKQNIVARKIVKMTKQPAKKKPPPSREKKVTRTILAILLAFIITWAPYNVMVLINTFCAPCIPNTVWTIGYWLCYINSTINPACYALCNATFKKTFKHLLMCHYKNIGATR

[3] = Lipophilicity, log D of the compound at pH 7.4; type: physicochemical; conditions: buffer
Dipeptidyl peptidase 4 [4] = biological target: T2, Dipeptidyl peptidase 4 (Homo sapiens, UniProt P27487)
Dipeptidyl peptidase 4 [5] = biological target: T2, Dipeptidyl peptidase 4; remark: listed apart in the source
Description: Binding affinity to human recombinant DPP4 (39 to 766 residues) by surface plasmon resonance analysis

[6] = Renal clearance in wild type mouse at 0.01 mg/kg, iv; type: ADME, organism-based; conditions: in vivo
[7] = Renal clearance in DPP4 knockout mouse at 0.01 mg/kg, iv; type: ADME, organism-based; conditions: in vivo
[8] = Cmax in human plasma at 5 mg; type: ADME, cell-free; design: dose 5 mg

T2 sequence (P27487 whole entry): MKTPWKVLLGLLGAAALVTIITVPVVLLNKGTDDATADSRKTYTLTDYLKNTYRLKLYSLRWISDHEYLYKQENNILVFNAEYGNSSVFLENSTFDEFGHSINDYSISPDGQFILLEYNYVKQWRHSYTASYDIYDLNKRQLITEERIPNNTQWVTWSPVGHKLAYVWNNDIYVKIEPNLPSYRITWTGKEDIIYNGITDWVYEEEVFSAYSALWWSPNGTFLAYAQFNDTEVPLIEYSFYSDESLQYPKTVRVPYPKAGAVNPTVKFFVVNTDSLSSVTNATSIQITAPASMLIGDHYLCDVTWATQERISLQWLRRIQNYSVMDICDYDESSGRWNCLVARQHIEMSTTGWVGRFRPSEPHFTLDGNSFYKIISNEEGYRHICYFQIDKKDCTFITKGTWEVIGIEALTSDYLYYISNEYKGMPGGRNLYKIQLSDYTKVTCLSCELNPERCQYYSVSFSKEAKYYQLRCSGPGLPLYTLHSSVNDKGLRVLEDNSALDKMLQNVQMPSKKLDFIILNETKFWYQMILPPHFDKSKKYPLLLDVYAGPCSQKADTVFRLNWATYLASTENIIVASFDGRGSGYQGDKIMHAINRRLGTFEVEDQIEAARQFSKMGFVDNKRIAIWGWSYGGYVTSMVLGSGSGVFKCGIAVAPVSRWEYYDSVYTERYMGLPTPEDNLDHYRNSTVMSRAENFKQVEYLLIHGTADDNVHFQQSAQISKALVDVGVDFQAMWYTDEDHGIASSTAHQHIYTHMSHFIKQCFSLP
Muscarinic acetylcholine receptor M3, sequence (P20309 whole entry): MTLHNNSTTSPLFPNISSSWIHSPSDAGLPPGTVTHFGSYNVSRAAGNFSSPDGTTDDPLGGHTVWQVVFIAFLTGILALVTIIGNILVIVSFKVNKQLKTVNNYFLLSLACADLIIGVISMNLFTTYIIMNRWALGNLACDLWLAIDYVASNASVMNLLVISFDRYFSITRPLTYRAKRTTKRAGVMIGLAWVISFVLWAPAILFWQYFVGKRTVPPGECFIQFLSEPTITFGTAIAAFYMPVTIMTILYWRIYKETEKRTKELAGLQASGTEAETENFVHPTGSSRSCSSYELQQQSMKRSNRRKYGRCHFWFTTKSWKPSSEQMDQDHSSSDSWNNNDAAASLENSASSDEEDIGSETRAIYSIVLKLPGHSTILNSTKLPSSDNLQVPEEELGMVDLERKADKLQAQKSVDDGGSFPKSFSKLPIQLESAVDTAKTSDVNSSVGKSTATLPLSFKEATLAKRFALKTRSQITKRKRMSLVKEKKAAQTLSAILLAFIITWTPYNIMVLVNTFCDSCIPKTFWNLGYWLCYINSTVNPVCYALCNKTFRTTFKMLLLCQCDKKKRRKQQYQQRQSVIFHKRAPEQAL

IC50 [1]: 150 nM | IC50 [2]: 150 nM | logD [3]: 0 to 1.6
SMILES: CC(C)=CCn1c(N2CCC[C@H](N)C2)nc2c1c(=O)n(CC(=O)c1ccccc1)c(=O)n2C

logD [3]: 0 to 1.6
SMILES: Cn1c(=O)c2c(nc(N3CCCC(N)C3)n2Cc2ccccc2)n(C)c1=O (stereo unspecified)

Kd (Dipeptidyl peptidase 4 [4]): 246 nM | Kd (Dipeptidyl peptidase 4 [5]): 806 nM | logD [3]: 0 to 1.6
SMILES: O=c1[nH]c(=O)c2c(nc(N3CCNCC3)n2Cc2ccccc2)[nH]1

CL [6]: 2.7% | CL [7]: 24.2% | Cmax [8]: 10 nM | logD [3]: 0 to 1.6
SMILES: CC#CCn1c(N2CCC[C@@H](N)C2)nc2c1c(=O)n(Cc1nc(C)c3ccccc3n1)c(=O)n2C [LINAGLIPTIN]

— ChEMBL document CHEMBL4431324, “Comparative Analysis of Binding Kinetics and Thermodynamics of Dipeptidyl Peptidase-4 Inhibitors and Their Relationship to Structure” (J Med Chem, 2016)
